Data published in ChEMBL document CHEMBL5726691, “Carboxylic acid compound, method for preparation thereof, and use thereof” (2018).

Biological target: T1, Solute carrier family 22 member 12 (Homo sapiens, UniProt Q96S37)
T1 sequence (Q96S37 whole entry): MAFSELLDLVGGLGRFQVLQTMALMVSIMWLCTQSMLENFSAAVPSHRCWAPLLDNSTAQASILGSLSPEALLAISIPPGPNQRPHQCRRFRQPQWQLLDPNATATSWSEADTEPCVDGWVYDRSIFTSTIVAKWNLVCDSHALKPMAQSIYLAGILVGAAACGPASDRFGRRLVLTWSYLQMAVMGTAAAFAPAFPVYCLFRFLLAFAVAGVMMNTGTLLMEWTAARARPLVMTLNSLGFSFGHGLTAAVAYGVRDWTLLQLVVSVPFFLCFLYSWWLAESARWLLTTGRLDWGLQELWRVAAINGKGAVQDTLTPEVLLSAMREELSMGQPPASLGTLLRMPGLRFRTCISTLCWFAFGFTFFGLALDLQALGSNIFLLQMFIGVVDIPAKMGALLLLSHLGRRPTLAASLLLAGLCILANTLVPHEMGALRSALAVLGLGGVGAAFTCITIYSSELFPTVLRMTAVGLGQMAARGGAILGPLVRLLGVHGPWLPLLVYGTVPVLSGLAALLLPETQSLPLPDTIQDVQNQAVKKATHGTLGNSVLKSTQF
Assay: 150 microliter of cell lysate (100 mM of NaOH) was added in each well. Cell plate was placed on a vibrating plate and vibrated for 10 min at a speed of 600 rpm such that the cells were completely lysed. The cell plate was put in a centrifuge and spun for 5 min at a speed of 1000 rpm, then 45 microliter of supernatant was sucked out from each well and transferred to 96-well plate (Isoplate-96 Microplate from PerkinElmer).

IC50: > 1000 nM
SMILES: N#Cc1ccc(-c2ccccc2S(=O)(=O)CC2(CC(=O)O)CC2)cc1
